What all share (experiment): biochemical
Holding throughout (type): biochemical

The target in assay [1] is 363 human kinases (including Aurora A/B/C) (Homo sapiens, UniProt P17612). The following applies: PKA; for remaining activity at 0.5 µM / remaining activity at 0.1 µM: read-out: % Enzyme Activity (relative to DMSO controls); for remaining activity at 0.1 µM: 100 nM.
From the text: (§1) However, the Aurora A/B selectivity ratios derived from our in vitro and in vivo data can be compared to prioritize inhibitors.
Assay [2] concerns the target 363 human kinases (including Aurora A/B/C) (Homo sapiens, UniProt P49760). The following applies: CLK2, [ATP] 50 µM; for remaining activity at 0.5 µM / remaining activity at 0.1 µM: read-out: % Enzyme Activity (relative to DMSO controls); for remaining activity at 0.1 µM: 100 nM.
From the text: as §1
In assay [3] the target is T1, 363 human kinases (including Aurora A/B/C) (Homo sapiens, UniProt P52333).
T1 sequence (P52333 1-1124): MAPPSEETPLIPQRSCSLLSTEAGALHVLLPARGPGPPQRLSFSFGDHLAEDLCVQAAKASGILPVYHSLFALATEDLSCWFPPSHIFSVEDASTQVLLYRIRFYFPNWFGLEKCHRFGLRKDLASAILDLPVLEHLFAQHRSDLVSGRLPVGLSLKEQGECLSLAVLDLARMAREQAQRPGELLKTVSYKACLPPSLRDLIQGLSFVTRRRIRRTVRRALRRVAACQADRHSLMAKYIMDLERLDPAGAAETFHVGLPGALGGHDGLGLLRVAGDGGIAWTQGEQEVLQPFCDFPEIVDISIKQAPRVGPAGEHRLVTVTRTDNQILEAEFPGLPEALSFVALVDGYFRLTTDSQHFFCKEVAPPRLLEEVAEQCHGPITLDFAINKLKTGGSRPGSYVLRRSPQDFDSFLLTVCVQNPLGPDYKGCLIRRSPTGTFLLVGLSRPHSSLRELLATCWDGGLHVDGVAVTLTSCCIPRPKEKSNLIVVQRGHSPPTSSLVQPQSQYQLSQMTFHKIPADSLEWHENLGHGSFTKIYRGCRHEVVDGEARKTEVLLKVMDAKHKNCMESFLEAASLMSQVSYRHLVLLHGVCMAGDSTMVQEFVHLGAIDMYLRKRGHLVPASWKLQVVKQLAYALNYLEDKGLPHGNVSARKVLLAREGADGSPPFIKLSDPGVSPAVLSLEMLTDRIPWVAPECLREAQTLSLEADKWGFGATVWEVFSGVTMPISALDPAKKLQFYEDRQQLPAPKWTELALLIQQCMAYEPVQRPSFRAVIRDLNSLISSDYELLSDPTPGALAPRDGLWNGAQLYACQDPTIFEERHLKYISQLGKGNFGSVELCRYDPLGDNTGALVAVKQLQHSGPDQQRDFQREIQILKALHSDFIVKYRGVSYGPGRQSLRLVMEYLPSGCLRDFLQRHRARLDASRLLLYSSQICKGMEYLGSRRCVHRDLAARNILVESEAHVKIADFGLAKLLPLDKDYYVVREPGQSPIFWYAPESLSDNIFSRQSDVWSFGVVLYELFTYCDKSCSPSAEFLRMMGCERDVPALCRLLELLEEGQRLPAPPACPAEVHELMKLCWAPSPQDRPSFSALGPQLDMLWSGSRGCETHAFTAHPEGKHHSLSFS
The following applies: JAK3; for remaining activity at 0.5 µM / remaining activity at 0.1 µM: read-out: % Enzyme Activity (relative to DMSO controls); for remaining activity at 0.1 µM: 100 nM.
From the text: as §1

Assay [4] concerns the target T2, 363 human kinases (including Aurora A/B/C) (Homo sapiens, UniProt P53778).
T2 sequence (P53778 1-367): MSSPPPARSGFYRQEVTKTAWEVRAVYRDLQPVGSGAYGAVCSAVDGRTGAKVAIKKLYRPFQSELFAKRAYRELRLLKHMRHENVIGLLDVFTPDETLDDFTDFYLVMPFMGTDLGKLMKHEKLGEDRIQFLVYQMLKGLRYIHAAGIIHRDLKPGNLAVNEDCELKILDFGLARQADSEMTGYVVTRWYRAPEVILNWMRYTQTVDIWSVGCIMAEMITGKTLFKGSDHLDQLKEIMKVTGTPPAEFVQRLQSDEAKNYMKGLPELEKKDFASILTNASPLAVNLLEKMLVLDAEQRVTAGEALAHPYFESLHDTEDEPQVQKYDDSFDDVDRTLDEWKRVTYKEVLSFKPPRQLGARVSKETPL
The following applies: P38g; for remaining activity at 0.5 µM / remaining activity at 0.1 µM: read-out: % Enzyme Activity (relative to DMSO controls); for remaining activity at 0.1 µM: 100 nM.
From the text: as §1

Assay [5] has as its target 363 human kinases (including Aurora A/B/C) (Homo sapiens, UniProt Q15418). The following applies: RSK1; for remaining activity at 0.5 µM / remaining activity at 0.1 µM: read-out: % Enzyme Activity (relative to DMSO controls); for remaining activity at 0.1 µM: 100 nM.
From the text: as §1
The target of assay [6] is 363 human kinases (including Aurora A/B/C) (Homo sapiens, UniProt Q86Y07). The following applies: VRK2; for remaining activity at 0.5 µM / remaining activity at 0.1 µM: read-out: % Enzyme Activity (relative to DMSO controls); for remaining activity at 0.1 µM: 100 nM.
From the text: as §1
Assay [7] has as its target 363 human kinases (including Aurora A/B/C) (Homo sapiens, UniProt Q8N5S9). The following applies: CAMKK1, [ATP] 5 µM; for remaining activity at 0.5 µM / remaining activity at 0.1 µM: read-out: % Enzyme Activity (relative to DMSO controls); for remaining activity at 0.1 µM: 100 nM.
From the text: as §1
The target of assay [8] is T3, 363 human kinases (including Aurora A/B/C) (Homo sapiens, UniProt Q9UBE8).
T3 sequence (Q9UBE8 1-527): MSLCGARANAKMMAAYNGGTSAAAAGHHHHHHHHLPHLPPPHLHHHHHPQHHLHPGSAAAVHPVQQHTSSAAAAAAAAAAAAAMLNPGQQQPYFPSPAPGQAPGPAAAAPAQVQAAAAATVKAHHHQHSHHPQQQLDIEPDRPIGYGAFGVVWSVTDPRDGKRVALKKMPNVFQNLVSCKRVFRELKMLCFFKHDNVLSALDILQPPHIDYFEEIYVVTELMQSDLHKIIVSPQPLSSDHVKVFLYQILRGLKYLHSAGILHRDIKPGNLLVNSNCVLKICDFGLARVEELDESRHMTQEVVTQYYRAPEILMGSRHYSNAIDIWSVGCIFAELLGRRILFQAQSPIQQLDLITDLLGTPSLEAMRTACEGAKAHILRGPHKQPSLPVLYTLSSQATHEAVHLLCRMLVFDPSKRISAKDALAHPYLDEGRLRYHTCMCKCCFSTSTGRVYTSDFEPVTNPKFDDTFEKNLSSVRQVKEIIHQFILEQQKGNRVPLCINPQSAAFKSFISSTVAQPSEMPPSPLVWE
The following applies: NLK; for remaining activity at 0.5 µM / remaining activity at 0.1 µM: read-out: % Enzyme Activity (relative to DMSO controls); for remaining activity at 0.1 µM: 100 nM.
From the text: as §1

The text below walks through data of paper PMC4685510, “A Cell Biologist’s Field Guide to Aurora Kinase Inhibitors” (Frontiers in Oncology, 2015).

Structures are written as SMILES.

Sequence of 363 human kinases (including Aurora A/B/C) (Homo sapiens, UniProt Q15418) (Q15418 whole entry): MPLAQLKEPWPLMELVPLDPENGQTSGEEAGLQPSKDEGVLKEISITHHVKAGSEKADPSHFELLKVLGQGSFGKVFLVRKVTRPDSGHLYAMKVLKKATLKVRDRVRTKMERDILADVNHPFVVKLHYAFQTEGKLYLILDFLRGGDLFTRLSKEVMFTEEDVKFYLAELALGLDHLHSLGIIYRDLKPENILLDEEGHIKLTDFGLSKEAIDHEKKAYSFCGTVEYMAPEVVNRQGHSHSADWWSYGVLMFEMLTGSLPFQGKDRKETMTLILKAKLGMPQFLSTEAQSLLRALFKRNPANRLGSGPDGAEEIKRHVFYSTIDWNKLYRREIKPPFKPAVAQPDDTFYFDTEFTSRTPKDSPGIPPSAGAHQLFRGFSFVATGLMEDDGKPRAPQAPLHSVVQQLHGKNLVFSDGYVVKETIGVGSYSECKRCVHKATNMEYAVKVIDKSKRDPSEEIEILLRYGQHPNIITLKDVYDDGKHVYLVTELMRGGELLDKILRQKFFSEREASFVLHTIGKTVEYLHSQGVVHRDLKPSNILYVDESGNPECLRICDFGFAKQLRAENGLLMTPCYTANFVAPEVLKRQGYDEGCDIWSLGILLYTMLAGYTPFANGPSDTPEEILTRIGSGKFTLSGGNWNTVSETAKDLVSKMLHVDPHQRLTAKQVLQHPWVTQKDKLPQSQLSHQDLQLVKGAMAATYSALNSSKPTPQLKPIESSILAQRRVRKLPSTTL
Sequence of 363 human kinases (including Aurora A/B/C) (Homo sapiens, UniProt Q8N5S9) (Q8N5S9 whole entry): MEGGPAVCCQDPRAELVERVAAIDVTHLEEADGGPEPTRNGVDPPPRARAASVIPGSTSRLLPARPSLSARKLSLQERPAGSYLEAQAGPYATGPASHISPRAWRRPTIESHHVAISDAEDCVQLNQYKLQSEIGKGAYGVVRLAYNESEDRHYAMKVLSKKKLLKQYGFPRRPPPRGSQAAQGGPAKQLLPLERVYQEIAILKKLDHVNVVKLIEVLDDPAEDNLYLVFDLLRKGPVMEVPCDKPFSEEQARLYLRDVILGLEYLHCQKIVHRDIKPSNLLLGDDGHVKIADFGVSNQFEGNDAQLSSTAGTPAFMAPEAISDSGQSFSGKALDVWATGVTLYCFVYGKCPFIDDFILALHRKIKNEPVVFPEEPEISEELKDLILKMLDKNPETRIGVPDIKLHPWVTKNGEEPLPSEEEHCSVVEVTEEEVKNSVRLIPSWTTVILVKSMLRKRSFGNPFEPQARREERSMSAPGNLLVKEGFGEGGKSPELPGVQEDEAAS
Sequence of 363 human kinases (including Aurora A/B/C) (Homo sapiens, UniProt P49760) (P49760 whole entry): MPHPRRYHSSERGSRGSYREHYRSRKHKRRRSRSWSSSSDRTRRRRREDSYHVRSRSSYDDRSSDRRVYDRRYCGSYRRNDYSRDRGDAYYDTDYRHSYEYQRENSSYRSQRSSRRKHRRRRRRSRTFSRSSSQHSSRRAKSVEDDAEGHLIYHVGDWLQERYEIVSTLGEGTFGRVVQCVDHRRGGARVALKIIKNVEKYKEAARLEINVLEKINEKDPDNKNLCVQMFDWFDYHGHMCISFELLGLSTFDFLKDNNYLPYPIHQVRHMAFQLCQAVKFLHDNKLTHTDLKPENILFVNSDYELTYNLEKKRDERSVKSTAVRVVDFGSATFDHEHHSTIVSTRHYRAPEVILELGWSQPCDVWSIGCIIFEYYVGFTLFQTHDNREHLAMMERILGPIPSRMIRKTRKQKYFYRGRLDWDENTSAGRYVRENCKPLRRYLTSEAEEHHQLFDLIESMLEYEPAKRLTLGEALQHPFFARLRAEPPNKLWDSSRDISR
Sequence of 363 human kinases (including Aurora A/B/C) (Homo sapiens, UniProt Q86Y07) (Q86Y07 whole entry): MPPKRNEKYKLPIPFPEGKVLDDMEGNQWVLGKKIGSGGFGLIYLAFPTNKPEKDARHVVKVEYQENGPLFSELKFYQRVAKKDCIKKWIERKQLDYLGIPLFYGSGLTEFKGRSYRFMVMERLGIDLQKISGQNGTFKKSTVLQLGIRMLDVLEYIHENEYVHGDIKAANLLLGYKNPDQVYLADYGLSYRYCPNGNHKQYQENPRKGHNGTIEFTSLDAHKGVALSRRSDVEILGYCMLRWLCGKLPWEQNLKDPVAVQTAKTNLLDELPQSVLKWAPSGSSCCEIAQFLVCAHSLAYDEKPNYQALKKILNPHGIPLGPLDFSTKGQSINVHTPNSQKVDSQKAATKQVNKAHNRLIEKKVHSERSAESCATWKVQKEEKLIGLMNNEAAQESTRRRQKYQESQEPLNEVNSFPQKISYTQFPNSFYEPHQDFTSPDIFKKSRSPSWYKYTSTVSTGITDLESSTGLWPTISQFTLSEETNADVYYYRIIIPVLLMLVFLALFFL

As for `O=C(c1cccc(Cl)c1F)N1CCN(Cc2cccc(Nc3nccs3)n2)CC1` [MK-8745], the “% Enzyme Activity (relative to DMSO controls)” value in assay [1] (500 nM) was found to be 96.39%; in assay [2] (500 nM), 95.24%; in assay [3] (500 nM), 84.37%; in assay [4] (500 nM), 107.28%; in assay [5] (500 nM), 93.60%; in assay [6] (500 nM) it was 103.85%. The results for the “% Enzyme Activity (relative to DMSO controls)” value in assay [7] (500 nM) and in assay [8] (500 nM) were 105.68% and 97.25%, respectively. For the same compound, the remaining activity at 0.5 µM in assay [1] (500 nM) stood at 98.9%; in assay [2] (500 nM), 99%; in assay [3] (500 nM), 85.6%; in assay [4] (500 nM), 110%; in assay [5] (500 nM), 95.8%; in assay [6] (500 nM), 107%. Moreover, the remaining activity at 0.5 µM in assay [7] (500 nM) worked out at 106%; in assay [8] (500 nM), 98.5%.
As for `CCn1cc(-c2ccnc3[nH]c(-c4cccc(CN(C)C)c4)cc23)c(-c2ccc(NC(=O)N(C)C)cc2)n1` [GSK1070916], the remaining activity at 0.1 µM in assay [1] turned out to be 95.5%; in assay [2] it was 93.6%; in assay [3], 97.2%; in assay [4], 115%; in assay [5], 90%; in assay [6], 106%. Moreover, the remaining activity at 0.1 µM was found to be 110% in assay [7] and 95.7% in assay [8].
Take `O=C(O)[C@]1(Cc2cccc(Nc3nccs3)n2)CC[C@@H](Oc2cccc(Cl)c2F)CC1` [MK-5108]: the remaining activity at 0.1 µM in assay [1] was 100%; in assay [2] it was 72.9%; in assay [3], 31.4%; in assay [4], 100%; in assay [5], 99.1%; in assay [6], 114%. Further, the remaining activity at 0.1 µM was determined as 108% in assay [7] and 100% in assay [8]. The remaining activity at 0.5 µM in assay [1] (500 nM) is 96.4%; in assay [2] (500 nM) it was 25.4%; in assay [3] (500 nM) it was 6.75%; in assay [4] (500 nM), 112%; in assay [5] (500 nM), 91.2%; in assay [6] (500 nM), 91.7%. Further, the remaining activity at 0.5 µM in assay [7] (500 nM) was 104%; in assay [8] (500 nM), 94.5%.
